Experimental data: patent US5508384A, “Polypeptide derived from a popamine receptor, and compositions and methods thereof” (New York University, priority 1993, dated 1996)

Columns and labels:
[1] = tested on: dopamine receptor sites in the basal ganglia; conditions: cited from earlier work
[2] = tested on: norepinephrine receptor sites in thalamic and hypothalamic areas; conditions: cited from earlier work
[3] = basal ganglia, thalamic and hypothalamic areas; cited from earlier work
[4] = in vivo; cited from earlier work
[5] = Radioligand binding assay, polypeptide in DMPC small unilamellar vesicles; conditions: lipid:peptide 147:1, 1 h at 25° C., pH 7.4, FIG. 7
Procedure: Preparation of Small Unilamellar Visicles. Polypeptides were incorporated into DMPC vesicles at lipid:peptide ratio of 147:1 in the followinq manner: polypept ide in HFIP was mixed with dimyrystyroyl-phosphatidylcholine (synthetic) (DMPC) in dry chloroform and dried to a film with a stream of dry nitrogen at 0° C. This residue was then dried further overnight under a vacuum (1×10^-2 torr). The residue was then hydrated in […] and sonicated for a 30-min period under nitrogen at 0° C. The suspension was sedimented for a 30-min at 100,000 q (4° C.) to remove any residual titanium particles and large unilamellar vesicles The supernatant was removed and sedimented once more at 159,000 g for a 45 min period at 4° C. The supernatant in the lower portion was used immediately.
Radioligand Bining Assays. A 0.50 mL volume of 1.00 nM [^3 H]-spiperone(New England specific activity […]) was added to assay tubes which contained 0.5 mL lipid/peptide supernatant, 0.5 mL Tris buffer pH 7.4 and 0.5 mL of cold drug for a final volume of 2.0 mL. […]
Filters were then washed with 6.0 mL of cold 50 mM Tris-HCl buffer, pH 7.40. For detection of radioactivity, filters were placed in 2.0 mL of scintillation fluid (Scintiverse) and incubated for 24 h. The activity of the tritium was determined in a Beckman LS 7500 liquid scintillation counter. […]

[6] = Circular dichroism, helical content; assay type: physicochemical; conditions: solvent system in which most membrane polypeptides are strongly helical; FIG. 6
Procedure: Circular Dichroism (CD). Spectra were recorded on an Aviv model 60 DS circular dichroism spectrophotometer at room temperature with a 1 cm by 1 mm cell. The amplitude of the CD signal was calibrated using 10.1% (w/v) solution of d (+)-camphorsulfonic acid (Aldrich) and the wavelength of the CD signal was set using standard absorbance peaks of benzene vapor. Polypeptide ccncentrations were determined in a Cary 210 UV spectrophotomer wwith the absorbance measured at 280 nm. Helical content was estimated using CD signal intensity according to the method of Chen. et al Biochem. 13:[…] (1974). This calculation compares the experimental ellipticity at. 222 nm ( [θ]222) ( [θ]) to a theoretical [θ]222. The theoretical [θ]222 is empirically adjusted to account for differences in polypeptide length and is based on experimental CD data from a series of proteins with known crystal structures. Since both the curve shape and magnitude are important in analysis of a CD spectrum for secondary structure contributions, we also considered qualitatively the contributions to the spectral shapes from different secondary structures using reference curves for poly (L-lysine).

Compound	Blocks DA [1]	Blocks NE [2]	further results
CN(C)CCCN1c2ccccc2Sc2ccc(Cl)cc21 [Chlorpromazine]	Yes++	Yes++	
O=C(CCCN1CCC(O)(c2ccc(Cl)cc2)CC1)c1ccc(F)cc1 [Haloperidol]	Yes++++	Yes+	
COC(=O)[C@H]1[C@H]2C[C@@H]3c4[nH]c5cc(OC)ccc5c4CCN3C[C@H]2C[C@@H](OC(=O)c2cc(OC)c(OC)c(OC)c2)[C@@H]1OC [Reserpine]			concentrations of norepinephrine and dopamine [3]: reduces
CN1CCN(CC/C=C2/c3ccccc3Sc3ccc(S(=O)(=O)N(C)C)cc32)CC1 [Thiothixene]	Yes+	Yes+++	
CN1CCN(C2=Nc3cc(Cl)ccc3Nc3ccccc32)CC1 [clozapine]			motor side effects [4]: apparently capable of producing less motor side effects
Polypeptide III: consensus peptide of the dopamine D2 receptor transmembrane domains I-VII (DYAIFVLYASAWLSFNCPFIVTLNIK)			binding of [^3 H]-spiperone (receptor-like functional binding) [5]: binding to the neuroleptic agent, spiperone, into a stereoselective, concentration-dependent manner; helical structure from CD spectrum [6]: only partially helical
